What was measured:
p-cPLA2 = p-cPLA2 protein expression in IL-1β-stimulated A549 cells (western blotting); assay type: cell-based; conditions: IL-1β with SIN or DEX for 48 h
Description: RAW264.7 and A549 cell lines were obtained from American Type Culture Collection (ATCC, Manassas, Va., USA) and maintained in DMEM (RAW264.7) or 1640 (A549) medium containing 10% FBS (Gibco-BRL, Grand Island, N.Y., USA) and antibiotics at 37° C. in a humidified atmosphere containing 5% CO2. RAW264.7 cells were plated in 6-well plates at a density of 4×10^5 cells and incubated for 24 h, then the cells were pretreated with different concentrations of SIN for 1 h before stimulating with LPS (100 ng/ml). A549 cells were seeded in 6-well plates at a density of 1×10^5 cells and incubated for 24 h, followed by pretreatment with SIN. A549 cells were then stimulated by IL-1β (1 ng/ml).
Whole-cell and nuclear proteins were obtained using RIPA lysis buffer (CST, Boston, Mass., USA) and Nuclear and Cytoplasmic Extraction Reagents kit from Thermo Scientific (Asheville, N.C., USA), respectively. For immunoblotting, proteins from whole-cell, cytoplasm, nuclear, and microsomal fractions were separated on SDS-PAGE, then transferred onto a nitrocellulose membrane from GE Healthcare Life Sciences (Buckinghamshire, UK), and incubated with 5% skimmed milk at room temperature for 1 h. […] The levels of protein expression were measured using Odyssey v3.0 software from Li-COR (Lincoln, Nebr., USA).

mPGES-1 = mPGES-1 protein in microsomes of inflamed paw of carrageenan-induced rats (western blotting); assay type: in vivo, SD rats; conditions: SIN 25, 50, 100 mg/kg or DEX 2 mg/kg i.p.
Description: The model of carrageenan-induced paw edema was performed with SD rats (150-200 g). […] Briefly, rats were fasted for 12 h before experiment and intraperitoneal injection was performed with three different doses (25, 50 and 100 mg/kg) of SIN, or DEX (reference drug, 2 mg/kg) or 0.9% saline (Vehicle and Normal group rats), at 2 h prior to the induction of paw edema. Paw edema was induced by subcutaneous injection of 100 μl of 1% (w/v) freshly prepared λ-carrageenan (Sigma, St Louis, Mo., USA) diluted in saline in the right hind foot pad. 100 μl sterile saline was injected to the rats in the right hind paw as normal control.
After accomplish the experiment, rats were sacrificed by injection of dorminal, which contains 20% pentobarbital and followed by cervical dislocation. The paw tissues were removed and freshly frozen in liquid nitrogen immediately and stored at −80° C.
Frozen paws were pulverized in liquid nitrogen using a stainless steel mortar and pestle, then re-suspended in 8 volumes of ice-cold PBS from Invitrogen (San Diego, Calif., USA) with 2.6 mM DTT from Promega (Madison, Wis., USA) and 2×Complete Protease Inhibitor mixture from Roche (Mannheim, Germany), and homogenized on ice bath using a tissue homogenizer from T25 digital, IKA (Stanfen, Germany) at 10,000 rpm/min for 5 min. […] The protein concentrations were measured using a Bio-Rad protein assay kit (Hercules, Calif., USA). […]

NF-κB = experiment: EMSA for NF-κB DNA binding activity in LPS-stimulated rat peritoneal macrophages; assay type: cell-based; conditions: LPS-induced, nuclear extract
Description: Nuclear extract proteins (10 μg) for the assay of the DNA binding activity of NF-κB were tested with a biotin-labeled oligonucleotide bio-NF-κB probe according to manufacturer's instructions of EMSA kit (Viagene Biotech).

NF-κB (mPGES-1 promoter) = target: T1, NF-κB (mPGES-1 promoter) (Rattus norvegicus, UniProt Q7TQN4); experiment: ChIP assay: NF-κB DNA binding to mPGES-1 promoter in LPS-stimulated rat peritoneal macrophages; assay type: cell-based; conditions: 640 μM SIN 1 h, 1 μg/ml LPS 30 min
T1 construct: Peritoneal macrophages of SD rats were isolated; endogenous in cells; host or cells: primary peritoneal macrophages of SD rats
Description: Rat peritoneal macrophages were pretreated with 640 μM SIN (1 h) and stimulated with 1 μg/ml LPS (30 min) before fixation at room temperature for 10 min with 1% formaldehyde. Fixation was terminated by adding glycine (to 0.125 M) with an additional incubation of 5 min, then the cells were washed twice with ice-cold PBS and harvested by scraping and centrifugation (1500 rpm for 10 min at 4° C.). Cell lysis was performed using ChIP kit from abcam (Cambridge, UK) according to the manufacturer's instructions. Briefly, cell pellets were resuspended in 1 ml Buffer B by pipetting up and down several times in a microcentrifuge tube and incubated at room temperature for 10 min. After centrifugation at 5000 rpm, the pellet was collected and resuspended in ice cold Buffer C and incubated on ice for 10 min, followed by centrifugation (5,000 rpm for 10 min at 4° C.). The pellet was mixed with 100 μl Buffer D containing protease inhibitors, incubated on ice for 10 min and sonicated for 30 cycles in a Bioruptor UCD-300 sonicator (power on high, 30 s on, 30 s off per cycle), yielding DNA fragments of 150-200 bps (the size of sonicated chromatin was checked through running 2% agarose gel). Beads were blocked overnight in PBS with 0.5% BSA and then added to the samples. […]

T1 sequence (Q7TQN4 whole entry): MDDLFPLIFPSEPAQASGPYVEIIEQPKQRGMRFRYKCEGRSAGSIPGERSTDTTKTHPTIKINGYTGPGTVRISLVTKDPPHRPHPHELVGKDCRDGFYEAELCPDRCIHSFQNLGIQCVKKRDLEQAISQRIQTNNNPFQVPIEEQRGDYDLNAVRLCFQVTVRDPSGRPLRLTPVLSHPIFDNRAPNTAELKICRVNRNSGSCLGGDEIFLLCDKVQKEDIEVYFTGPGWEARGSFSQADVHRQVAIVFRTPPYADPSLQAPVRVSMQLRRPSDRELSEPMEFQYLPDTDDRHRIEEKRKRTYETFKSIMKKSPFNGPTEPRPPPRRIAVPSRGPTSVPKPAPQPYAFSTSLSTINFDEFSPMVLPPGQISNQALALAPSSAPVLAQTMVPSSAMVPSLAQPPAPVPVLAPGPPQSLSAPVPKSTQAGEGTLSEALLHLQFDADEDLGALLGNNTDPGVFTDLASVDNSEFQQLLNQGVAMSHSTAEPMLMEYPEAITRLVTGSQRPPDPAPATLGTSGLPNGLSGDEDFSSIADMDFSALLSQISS

COC1=C[C@@H]2[C@@H]3Cc4ccc(OC)c(O)c4[C@]2(CCN3C)CC1=O [SIN, sinomenine]
p-cPLA2 protein expression (p-cPLA2): did not suppress
mPGES-1 protein expression in inflamed paw tissues (mPGES-1): strongly down-regulated
NF-κB DNA binding activity (EMSA) (NF-κB): capable of suppressing
DNA binding of NF-κB to the promoter of mPGES-1 (NF-κB (mPGES-1 promoter)): selectively inhibited
